Experimental findings from US8691753B2 (priority 2009, dated 2014) are described below.

Holding throughout (type): biochemical
One experiment has as its target MMP-13h (Homo sapiens (Human), UniProt P45452). Nature of the experiment: Inhibition constant (Ki) on MMP-13h. The conditions noted are these: human MMP-13. From the text:
(§1) The inhibition constant Ki of these compounds has been determined according to the protocol described by Devel et al, 2006, J. Biol. Chem. (7).
(§2) In this table I and also in table II below, “h” corresponds to human. All of the compounds have therefore been evaluated on human MMPs.

The target in a further experiment is MMP-3h (Homo sapiens (Human), UniProt P08254). Kind of experiment: Inhibition constant (Ki) on MMP-3h. Conditions: human MMP-3.
Chain of MMP-3h (P08254 100-477): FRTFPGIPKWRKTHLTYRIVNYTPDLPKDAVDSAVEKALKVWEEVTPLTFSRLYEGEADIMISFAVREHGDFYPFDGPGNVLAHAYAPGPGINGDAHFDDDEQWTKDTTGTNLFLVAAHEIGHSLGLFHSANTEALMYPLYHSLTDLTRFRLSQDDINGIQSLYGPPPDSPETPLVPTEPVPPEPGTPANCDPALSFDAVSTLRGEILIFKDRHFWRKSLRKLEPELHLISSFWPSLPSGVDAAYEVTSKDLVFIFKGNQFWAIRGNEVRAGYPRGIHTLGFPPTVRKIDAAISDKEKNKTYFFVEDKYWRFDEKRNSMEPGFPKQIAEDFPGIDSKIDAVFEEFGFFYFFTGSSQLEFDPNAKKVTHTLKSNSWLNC
From the text: as §1, §2

A further experiment has as its target MMP-10h (Homo sapiens (Human), UniProt P09238). Kind of experiment: Inhibition constant (Ki) on MMP-10h. The conditions noted are these: human MMP-10.
A further experiment deals with MMP-2h (Homo sapiens (Human), UniProt P08253). Kind of experiment: Inhibition constant (Ki) on MMP-2h. Conditions: human MMP-2.
Chain of MMP-2h (P08253 110-660): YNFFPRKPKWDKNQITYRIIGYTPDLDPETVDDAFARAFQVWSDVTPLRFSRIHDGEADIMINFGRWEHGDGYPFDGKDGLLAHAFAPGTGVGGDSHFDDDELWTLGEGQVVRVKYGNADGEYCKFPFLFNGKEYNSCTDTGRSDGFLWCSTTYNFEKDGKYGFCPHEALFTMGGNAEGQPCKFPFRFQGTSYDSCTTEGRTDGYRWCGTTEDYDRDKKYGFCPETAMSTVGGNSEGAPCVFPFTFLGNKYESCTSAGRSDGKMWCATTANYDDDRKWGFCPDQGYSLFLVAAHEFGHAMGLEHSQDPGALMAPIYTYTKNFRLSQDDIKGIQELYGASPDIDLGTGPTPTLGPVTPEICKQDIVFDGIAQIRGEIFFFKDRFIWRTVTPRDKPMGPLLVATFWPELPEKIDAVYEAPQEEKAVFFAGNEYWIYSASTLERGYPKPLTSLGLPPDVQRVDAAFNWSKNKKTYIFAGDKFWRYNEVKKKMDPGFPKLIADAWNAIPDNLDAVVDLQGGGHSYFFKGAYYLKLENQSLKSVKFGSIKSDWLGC
From the text: as §1, §2

A further experiment concerns the target MMP-12h (Homo sapiens (Human), UniProt P39900). Kind of experiment: Inhibition constant (Ki) on MMP-12h. Conditions: human MMP-12.
The target in another experiment is MMP-14h (Homo sapiens (Human), UniProt P50281). Nature of the experiment: Inhibition constant (Ki) on MMP-14h. The conditions noted are these: human MMP-14.
From the text: as §1, §2

In a further experiment the target is MMP-8h (Homo sapiens (Human), UniProt P22894). Kind of experiment: Inhibition constant (Ki) on MMP-8h. Conditions: human MMP-8.
Chain of MMP-8h (P22894 101-467): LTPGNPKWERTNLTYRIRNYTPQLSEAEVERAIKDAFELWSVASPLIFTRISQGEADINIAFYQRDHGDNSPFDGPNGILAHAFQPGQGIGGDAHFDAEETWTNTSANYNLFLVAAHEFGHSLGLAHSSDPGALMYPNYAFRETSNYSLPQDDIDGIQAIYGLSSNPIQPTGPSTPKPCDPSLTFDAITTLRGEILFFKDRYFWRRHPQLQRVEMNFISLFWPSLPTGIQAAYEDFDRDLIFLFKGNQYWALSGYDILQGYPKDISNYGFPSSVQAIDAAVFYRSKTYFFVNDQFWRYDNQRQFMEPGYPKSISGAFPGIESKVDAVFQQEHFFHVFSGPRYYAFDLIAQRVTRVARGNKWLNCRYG
The next experiment addresses MMP-9h (Homo sapiens (Human), UniProt P14780). Kind of experiment: Inhibition constant (Ki) on MMP-9h. The conditions noted are these: human MMP-9.
From the text: as §1, §2

pKi: −log10 of the molar value. Like-named read-outs stand apart in the source and are kept apart here. A value given as a limit tells only on which side of the number the result lay.

Chain of MMP-10h (P09238 99-476): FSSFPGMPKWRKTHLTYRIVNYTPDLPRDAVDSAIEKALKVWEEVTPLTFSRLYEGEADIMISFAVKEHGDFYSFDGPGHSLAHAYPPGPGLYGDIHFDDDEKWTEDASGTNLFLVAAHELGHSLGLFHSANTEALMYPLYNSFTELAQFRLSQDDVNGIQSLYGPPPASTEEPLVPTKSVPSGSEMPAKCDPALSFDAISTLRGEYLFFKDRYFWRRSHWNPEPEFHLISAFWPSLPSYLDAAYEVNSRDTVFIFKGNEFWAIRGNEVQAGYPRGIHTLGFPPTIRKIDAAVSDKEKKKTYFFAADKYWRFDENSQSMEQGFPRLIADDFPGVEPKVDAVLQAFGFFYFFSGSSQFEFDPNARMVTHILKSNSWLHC
Chain of MMP-12h (P39900 106-470): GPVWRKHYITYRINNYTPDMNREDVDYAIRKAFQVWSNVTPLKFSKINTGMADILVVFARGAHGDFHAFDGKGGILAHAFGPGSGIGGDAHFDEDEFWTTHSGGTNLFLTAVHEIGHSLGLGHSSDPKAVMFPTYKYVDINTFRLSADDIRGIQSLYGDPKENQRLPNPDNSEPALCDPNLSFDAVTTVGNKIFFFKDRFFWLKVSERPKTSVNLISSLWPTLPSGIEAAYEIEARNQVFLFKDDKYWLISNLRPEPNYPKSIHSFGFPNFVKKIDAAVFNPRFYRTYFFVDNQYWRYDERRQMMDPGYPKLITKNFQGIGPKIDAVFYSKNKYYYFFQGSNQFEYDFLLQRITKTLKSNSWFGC
Chain of MMP-9h (P14780 94-707): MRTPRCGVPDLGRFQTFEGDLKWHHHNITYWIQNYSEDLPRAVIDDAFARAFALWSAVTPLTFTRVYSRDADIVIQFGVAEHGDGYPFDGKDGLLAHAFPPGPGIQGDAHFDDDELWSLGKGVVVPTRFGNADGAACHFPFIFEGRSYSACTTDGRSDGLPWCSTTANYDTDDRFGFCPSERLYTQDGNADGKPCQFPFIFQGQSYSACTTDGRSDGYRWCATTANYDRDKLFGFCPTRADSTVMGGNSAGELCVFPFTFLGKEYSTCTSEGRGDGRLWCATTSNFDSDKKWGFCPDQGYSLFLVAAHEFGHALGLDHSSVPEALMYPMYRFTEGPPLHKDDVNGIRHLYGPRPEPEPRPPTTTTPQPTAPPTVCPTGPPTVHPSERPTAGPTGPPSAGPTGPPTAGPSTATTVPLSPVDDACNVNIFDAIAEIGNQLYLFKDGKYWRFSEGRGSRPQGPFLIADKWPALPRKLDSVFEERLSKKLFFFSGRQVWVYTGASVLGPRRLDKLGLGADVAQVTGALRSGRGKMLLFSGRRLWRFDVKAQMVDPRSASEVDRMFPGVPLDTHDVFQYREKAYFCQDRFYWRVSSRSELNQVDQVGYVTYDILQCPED

The term pKi denotes −log10 of the Ki, conventionally taken in molar units. Turning to `NC(=O)[C@H](CCC(=O)O)NC(=O)[C@H](CCC(=O)O)NC(=O)CCc1ccc(-n2cccc2)cc1` [Compound 36, (S)-4-(3-(4-(1H-pyrrol-1-yl)phenyl)propanamido)-5-((S)-1-amino-4-carboxy-1-oxobutan-2-ylamino)-5-oxopentanoic acid], the negative-log Ki (pKi) on MMP-13h was < 6.00; on MMP-3h it was < 6.00; at MMP-10h, < 6.00; at MMP-2h it was < 6.00; at MMP-12h, 7.23; at MMP-14h, < 5.30. In addition, the pKi was 6.43 on MMP-8h and < 6.00 on MMP-9h.

With `NC(=O)[C@H](CCC(=O)O)NC(=O)[C@H](CCC(=O)O)NC(=O)CCc1ccc(-c2nccs2)cc1` [Compound 37, (S)-5-amino-4-((S)-4-carboxy-2-(3-(4-(thiazol-2-yl)phenyl)propanamido)butanamido)-5-oxopentanoic acid], the pKi on MMP-13h was 6.62; at MMP-3h it was < 5.30; at MMP-10h, < 6.00; at MMP-2h, 6.18; at MMP-12h it was 6.43; at MMP-14h, < 6.00. Moreover, the pKi at MMP-8h and on MMP-9h was < 6.00 throughout.

For the molecule `NC(=O)[C@H](CCC(=O)O)NC(=O)[C@H](CCC(=O)O)NC(=O)CCc1ccc(-c2ccsc2)cc1` [Compound 38, (S)-5-amino-4-((S)-4-carboxy-2-(3-(4-(thiophen-3-yl)phenyl)propanamido)butanamido)-5-oxopentanoic acid], the pKi at MMP-13h was 6.27; at MMP-3h, 6.47; at MMP-10h, 6.35; at MMP-2h, 6.65; on MMP-12h it was 7.92; on MMP-14h, 6.39. Also, the values for the pKi at MMP-8h and at MMP-9h were 7.28 and 6.85, respectively.

For the molecule `NC(=O)[C@H](CCC(=O)O)NC(=O)[C@H](CCC(=O)O)NC(=O)CCc1ccc(-c2nc3ccccc3s2)cc1` [Compound 39, (S)-5-amino-4-((S)-2-(3-(4-(benzo[d]thiazol-2-yl)phenyl)propanamido)-4-carboxybutanamido)-5-oxopentanoic acid], the pKi at MMP-13h is 6.87; at MMP-3h, 7.06; on MMP-10h, 7.00; at MMP-2h it was 6.82; at MMP-12h, 8.66; on MMP-14h it was 6.26. Moreover, the values for the pKi on MMP-8h and on MMP-9h were 6.84 and 6.21, respectively.

With `NC(=O)CC[C@H](NC(=O)[C@H](CCC(=O)O)NC(=O)CCc1ccc(-c2ccccc2)cc1)C(N)=O` [Compound 42, (S)-4-(3-(biphenyl-4-yl)propanamido)-5-((S)-1,5-diamino-1,5-dioxopentan-2-ylamino)-5-oxopentanoic acid], the pKi on MMP-13h is 6.05; at MMP-3h, < 5.30; on MMP-10h, < 6.00; at MMP-2h, 6.35; at MMP-12h, 7.32; at MMP-14h, < 6.00. For the same molecule, the pKi on MMP-8h is 6.55; at MMP-9h, < 6.00.

Regarding `NC(=O)CC[C@H](NC(=O)[C@H](CCC(N)=O)NC(=O)CCc1ccc(-c2ccccc2)cc1)C(N)=O` [Compound 43, (S)-2-(3-(biphenyl-4-yl)propanamido)-N^1-((S)-1,5-diamino-1,5-dioxopentan-2-yl)pentanediamide], the pKi is 6.59 at MMP-13h (read-out: Ki MMP-13h); < 6.00 at MMP-3h (read-out: Ki MMP-3h); < 5.30 at MMP-10h (read-out: Ki MMP-10h); 6.50 on MMP-2h (read-out: Ki MMP-2h); 6.51 on MMP-12h (read-out: Ki MMP-12h); < 5.30 on MMP-14h (read-out: Ki MMP-14h). The pKi at MMP-8h (read-out: Ki MMP-8h) was 6.18; at MMP-9h (read-out: Ki MMP-9h), < 6.00.

As to `NCCCC[C@H](NC(=O)[C@H](CCC(=O)O)NC(=O)CCc1ccc(-c2ccccc2)cc1)C(N)=O` [Compound 44, (S)-4-(3-(biphenyl-4-yl)propanamido)-5-((S)-1,6-diamino-1-oxohexan-2-ylamino)-5-oxopentanoic acid], the pKi at MMP-13h (read-out: Ki MMP-13h) is < 6.00; at MMP-3h (read-out: Ki MMP-3h), < 5.00; on MMP-10h (read-out: Ki MMP-10h) it was < 5.30; on MMP-2h (read-out: Ki MMP-2h), < 6.00; at MMP-12h (read-out: Ki MMP-12h), 6.92; at MMP-14h (read-out: Ki MMP-14h), < 5.30. Moreover, the pKi on MMP-8h (read-out: Ki MMP-8h) was 6.38; on MMP-9h (read-out: Ki MMP-9h), < 5.30.

`NC(=O)[C@H](CC(=O)O)NC(=O)[C@H](CCC(=O)O)NC(=O)CCc1ccc(-c2ccccc2)cc1` [Compound 45, (S)-5-((S)-1-amino-3-carboxy-1-oxopropan-2-ylamino)-4-(3-(biphenyl-4-yl)propanamido)-5-oxopentanoic acid]: the pKi at MMP-13h (read-out: Ki MMP-13h) is < 6.00; at MMP-3h (read-out: Ki MMP-3h), < 5.30; on MMP-10h (read-out: Ki MMP-10h), < 6.00; on MMP-2h (read-out: Ki MMP-2h), 6.05; on MMP-12h (read-out: Ki MMP-12h), 7.43; on MMP-14h (read-out: Ki MMP-14h), < 5.30. Further, the results for the pKi at MMP-8h (read-out: Ki MMP-8h) and on MMP-9h (read-out: Ki MMP-9h) were 6.63 and < 6.00, respectively.

With `NC(=O)[C@H](Cc1ccc(O)cc1)NC(=O)[C@H](CCC(=O)O)NC(=O)CCc1ccc(-c2ccccc2)cc1` [Compound 46, (S)-5-((S)-1-amino-3-(4-hydroxyphenyl)-1-oxopropan-2-ylamino)-4-(3-(biphenyl-4-yl)propanamido)-5-oxopentanoic acid], the negative logarithm of the Ki (pKi) was < 6.00 on MMP-13h (read-out: Ki MMP-13h); < 5.00 on MMP-3h (read-out: Ki MMP-3h); < 6.00 at MMP-10h (read-out: Ki MMP-10h); 6.20 on MMP-2h (read-out: Ki MMP-2h); 7.28 at MMP-12h (read-out: Ki MMP-12h); < 5.30 on MMP-14h (read-out: Ki MMP-14h). The negative-log Ki (pKi) was 6.57 at MMP-8h (read-out: Ki MMP-8h) and < 6.00 on MMP-9h (read-out: Ki MMP-9h).

As for `C[C@H](NC(=O)[C@H](CCC(=O)O)NC(=O)CCc1ccc(-c2ccccc2)cc1)C(N)=O` [Compound 47, (S)-5-((S)-1-amino-1-oxopropan-2-ylamino)-4-(3-(biphenyl-4-yl)propanamido)-5-oxopentanoic acid], the pKi at MMP-13h (read-out: Ki MMP-13h) is < 6.00; at MMP-3h (read-out: Ki MMP-3h), < 5.00; at MMP-10h (read-out: Ki MMP-10h), < 6.00; on MMP-2h (read-out: Ki MMP-2h), < 6.00; at MMP-12h (read-out: Ki MMP-12h) it was 7.24; at MMP-14h (read-out: Ki MMP-14h) it was < 5.30. Moreover, the pKi on MMP-8h (read-out: Ki MMP-8h) was 6.51; at MMP-9h (read-out: Ki MMP-9h), < 6.00.

With `NC(=O)[C@H](Cc1c[nH]cn1)NC(=O)[C@H](CCC(=O)O)NC(=O)CCc1ccc(-c2ccccc2)cc1` [Compound 48, (S)-5-((S)-1-amino-3-(1H-imidazol-4-yl)-1-oxopropan-2-ylamino)-4-(3-(biphenyl-4-yl)propanamido)-5-oxopentanoic acid], the pKi at MMP-13h (read-out: Ki MMP-13h) is < 6.00; at MMP-3h (read-out: Ki MMP-3h) it was < 5.00; at MMP-10h (read-out: Ki MMP-10h), < 6.00; at MMP-2h (read-out: Ki MMP-2h) it was 6.07; on MMP-12h (read-out: Ki MMP-12h), 7.12; on MMP-14h (read-out: Ki MMP-14h) it was < 5.00. The negative logarithm of the Ki (pKi) is 6.47 at MMP-8h (read-out: Ki MMP-8h) and < 5.30 on MMP-9h (read-out: Ki MMP-9h).

Consider `NC(=O)[C@H](CO)NC(=O)[C@H](CCC(=O)O)NC(=O)CCc1ccc(-c2ccccc2)cc1` [Compound 49, (S)-5-((S)-1-amino-3-hydroxy-1-oxopropan-2-ylamino)-4-(3-(biphenyl-4-yl)propanamido)-5-oxopentanoic acid], for which the pKi on MMP-13h (read-out: Ki MMP-13h) was < 6.00; on MMP-3h (read-out: Ki MMP-3h), < 5.30; at MMP-10h (read-out: Ki MMP-10h) it was < 6.00; on MMP-2h (read-out: Ki MMP-2h), 6.10; at MMP-12h (read-out: Ki MMP-12h), 7.39; at MMP-14h (read-out: Ki MMP-14h), < 6.00. The negative logarithm of the Ki (pKi) on MMP-8h (read-out: Ki MMP-8h) is 6.69; at MMP-9h (read-out: Ki MMP-9h) it was < 6.00.

In the case of `CC(C)C[C@H](NC(=O)[C@H](CCC(=O)O)NC(=O)CCc1ccc(-c2ccccc2)cc1)C(N)=O` [Compound 50, (S)-5-((S)-1-amino-4-methyl-1-oxopentan-2-ylamino)-4-(3-(biphenyl-4-yl)propanamido)-5-oxopentanoic acid], the negative logarithm of the Ki (pKi) on MMP-13h (read-out: Ki MMP-13h) is < 6.00; on MMP-3h (read-out: Ki MMP-3h) it was < 4.30; on MMP-10h (read-out: Ki MMP-10h), < 5.30; at MMP-2h (read-out: Ki MMP-2h), < 6.00; on MMP-12h (read-out: Ki MMP-12h), 7.12; at MMP-14h (read-out: Ki MMP-14h), < 5.30. In addition, the pKi on MMP-8h (read-out: Ki MMP-8h) was 6.44; on MMP-9h (read-out: Ki MMP-9h), < 5.30.

Consider `O=C(O)CC[C@H](NC(=O)CCc1ccc(-c2ccccc2)cc1)C(=O)N1CCC[C@@H](CC(=O)O)C1` [Compound 51, (S)-4-(3-(biphenyl-4-yl)propanamido)-5-((S)-3-(carboxymethyl)piperidin-1-yl)-5-oxopentanoic acid], for which the pKi at MMP-13h (read-out: Ki MMP-13h) is < 6.00; at MMP-3h (read-out: Ki MMP-3h), < 5.00; at MMP-10h (read-out: Ki MMP-10h), < 5.00; at MMP-2h (read-out: Ki MMP-2h), < 6.00; at MMP-12h (read-out: Ki MMP-12h) it was 6.59; on MMP-14h (read-out: Ki MMP-14h), < 5.30. The pKi on MMP-8h (read-out: Ki MMP-8h) was 6.03; on MMP-9h (read-out: Ki MMP-9h) it was < 6.00.

`O=C(O)CC[C@H](NC(=O)CCc1ccc(-c2ccccc2)cc1)C(=O)Nc1cccc(CC(=O)O)c1` [Compound 52, (S)-4-(3-(biphenyl-4-yl)propanamido)-5-(3-(carboxymethyl)phenylamino)-5-oxopentanoic acid]: the pKi was < 6.00 at MMP-13h (read-out: Ki MMP-13h); < 5.30 on MMP-3h (read-out: Ki MMP-3h); 6.36 at MMP-10h (read-out: Ki MMP-10h); 6.26 at MMP-2h (read-out: Ki MMP-2h); 7.90 at MMP-12h (read-out: Ki MMP-12h); < 6.00 on MMP-14h (read-out: Ki MMP-14h). For the same molecule, the pKi on MMP-8h (read-out: Ki MMP-8h) was 7.20; at MMP-9h (read-out: Ki MMP-9h) it was < 6.00.
